Measured values from US11622950B2.

Experiments:
[1] = test system: BxPC3 pancreatic cancer cells; assay: Oral anti-tumor efficacy in human BxPC3 pancreatic cancer xenografts in mice; assay type: in vivo, CD-1 nude mice; conditions: BxPC3 xenograft; oral dose of 100 mg/week for 4 weeks; versus 5% dextrose or untreated
Protocol: An acclimation period of 7 days was allowed between the arrival of the animal at the study site before tumor inoculation and experimentation. Mice were inoculated subcutaneously (SC) in the right flank with 2×10^6 human H460 NSCLC or BxPC3 pancreatic cancer cells that were suspended in 0.1 mL of Dulbeco's Phosphate Buffered Salt (PBS) solution using a 1 cc syringe with a 27-⅝ gauge needle. Tumor dimensions (length and width) were measured daily before, during and after treatment (using Vernier calipers) and the tumor volume was calculated using the prolate ellipsoid formula: (length×width^2)/2. Treatment with test or control articles began 8 days post tumor cell implantation when the tumor was approximately 300 mm^3.
A similar study was conducted in CD-1 nude mice (n=9) inoculated with 2×10^6 BxPC-3 cells. The study was initiated when tumors reached an average size of 150 mm^3 (day 0) and CPI-613 was administered at an oral dose of 100 mg/week for 4 weeks. A comparator arm (n=9) was conducted with IP treatment at a weekly dose of 25 mg/kg.

[2] = test system: human H460 NSCLC cells; assay: Oral anti-tumor efficacy in human H460 NSCLC xenografts in mice; assay type: in vivo, CD1-Nu/Nu female mice; conditions: H460 xenograft; oral 100 mg/kg on day 8, 15, 22, 29; versus 5% dextrose or untreated
Protocol: Human H460 NSCLC cells were obtained from American Type Cell Culture (ATCC) (catalog no. HTB-177, Manassas, Va.). These cells tested negative for viral contamination using the Mouse Antibody Production (MAP) test, performed by Charles River Labs Molecular Division, upon the receipt of the tumor cells from ATCC. The tumor cells were maintained at […] in a humidified 5% CO2 atmosphere in T225 tissue culture flasks containing 50 mL of Roswell Park Memorial Institute (RPMI)-1640 solution with 10% Fetal Bovine Serum (FBS) and 2 mM L-glutamine. Cells were split at a ratio of 1:10 every 2-3 days by trypsinization and resuspended in fresh medium in a new flask. Cells were harvested for experiments in the same way at 70-90% confluency.
CD1-Nu/Nu female mice, ˜4-6 weeks old were obtained from Charles River Laboratories. Mice were housed 5 to a cage in a micro-isolator room in the Department of Animal Laboratory Research of New York State University (SUNY) at Stony Brook. Light-dark cycles were 12 h each daily, with light from 7 a.m. to 7 p.m. […]
An acclimation period of 7 days was allowed between the arrival of the animal at the study site before tumor inoculation and experimentation. […] Tumor dimensions (length and width) were measured daily before, during and after treatment (using Vernier calipers) and the tumor volume was calculated using the prolate ellipsoid formula: (length×width^2)/2. […]

[3] = Clinical study of CPI-613 Drug Compound with gemcitabine hydrochloride and nab-paclitaxel: tolerance; assay type: in vivo; conditions: 500 mg/m^2 with Gemcitabine+nab-paclitaxel on days 1 and 15, human patients
Text: Human patients suffering from locally advanced or metastatic pancreatic cancer are to be administered 6,8-bis(benzylsulfanyl)octanoic acid triethanolamine ion pair in combination with gemcitabine hydrochloride and nab-paclitaxel. Experimental procedures are described below.
[…] CPI-613 Drug Compound is 6,8-bis(benzylsulfanyl)octanoic acid triethanolamine ion pair.

Row | Compound | tumor growth [1] | tumor growth [2] | tolerance of regimen [3]
1 | O=C(O)CCCCC(CCSCc1ccccc1)SCc1ccccc1 (stereo not drawn) [6,8-bis(benzylsulfanyl)octanoic acid] | especially pronounced | grew much more slowly | –
2 | O=C(O)CCCCC(CCSCc1ccccc1)SCc1ccccc1.OCCN(CCO)CCO (stereo not drawn) [CPI-613 Drug Compound, 6,8-bis(benzylsulfanyl)octanoic acid triethanolamine ion pair] | – | – | excellent tolerance
